{"source": "patent US20120077836A1", "about": "“METHODS OF ADMINISTERING (4AR,10AR)-1-N-PROPYL-1,2,3,4,4A,5,10,10A-OCTAHYDROBENZO [G] QUINOLINE-6,7-DIOL AND RELATED COMPOUNDS ACROSS THE ORAL MUCOSA, THE NASAL MUCOSA OR THE SKIN AND PHARMACEUTICAL COMPOSITIONS THEREOF” (priority 2009, published 2012)", "key": {"[1]": {"test_system": "rats with unilateral 6-OHDA lesions", "settings": "rat, in vivo, sc"}, "MPTP treated marmosets": {"test_system": "MPTP treated marmosets", "assay": "Anti-parkinsonian effects in MPTP-treated common marmosets", "format": "in vivo, common marmoset", "parameters": "disability score (120 min) / disability score (180 min) / disability score (240 min) / disability score (300 min) / disability score (360 min) / disability score (420 min) / disability score (60 min): scale not given here", "description": "The experiments were conducted using 6 MPTP treated marmosets (2.0 mg/kg daily for up to 5 consecutive days dissolved in sterile 0.9% saline solution). All the animals had previously been treated with L-DOPA (12.5 mg/kg p.o., plus carbidopa 12.5 mg/kg p.o.) administered daily for up to 30 days in order to induce dyskinesia. […] Domperidone was administered 60 min before any of the test compounds. Domperidone is an antidopaminergic drug that suppresses nausea and vomiting. Locomotor activity was assessed using test cages that are comprised of 8 photo-electric switches comprised of 8 infra-red beams which are strategically placed in the cage and interruption of a beam is recorded as one count. […] The assessment of motor disability was performed by a trained observer blinded to the treatment.\nThe dose chosen for this challenge is at the top of the dose response curve for this drug."}, "[2]": {"test_system": "rats with unilateral 6-OHDA lesions", "assay": "Rotation response in 6-OHDA rats after buccal delivery", "format": "in vivo, rat"}, "MPTP/AMPT mouse model": {"test_system": "MPTP/AMPT mouse model", "assay": "Superiority model, hypomotility in the MPTP/AMPT mouse model", "format": "in vivo", "description": "MPTP (1-methyl-4-phenyl-1,2,3,6-tetrahydropyridine) is a neurotoxin that causes permanent symptoms of Parkinson's disease by killing certain neurons in the substantia nigra of the brain. It is used to study the disease in monkeys and mice. […] Various compounds (all dosed subcutaneously) were tested for their ability to reverse the motility deficits produced in this model."}, "reserpinesed rats": {"test_system": "reserpinesed rats", "assay": "Reversal of reserpine-induced hypomotility in rats", "format": "in vivo, rat", "description": "Rats weighing ca. 200 g were treated with reserpine (5 mg/kg subcutaneously as a solution in 20% aqueous solutol for which pH was adjusted to 4 with methanesulfonic acid). […] Group 1: treated with 20% ethanol in 0.7% aqueous sodium chloride subcutaneously."}, "[3]": {"test_system": "rats with unilateral 6-OHDA lesions", "assay": "D1/D2 dissection, rotation response in rats with unilateral 6-OHDA lesions", "format": "in vivo, rat", "settings": "6-OHDA rats; for MED (minimum effective dose to induce rotation) / MEDNemonapride (MED to overcome Nemonapride block): dosed SC; for MEDNemonapride (MED to overcome Nemonapride block): * = rotations could not be blocked by SCH23390", "excerpt": "Rats weighing 200-250 g were subjected to unilateral 6-OHDA lesions. […] Nemonapride is a D2 antagonist that blocks the D2 receptors, therefore any observed rotations would be dependent upon activity at the D1 receptors."}, "[4]": {"target": "T1, human recombinant D1 receptor (Homo sapiens, UniProt P21728)", "T1 construct": "expressed in transfected cells", "T1 sequence (P21728 whole entry)": "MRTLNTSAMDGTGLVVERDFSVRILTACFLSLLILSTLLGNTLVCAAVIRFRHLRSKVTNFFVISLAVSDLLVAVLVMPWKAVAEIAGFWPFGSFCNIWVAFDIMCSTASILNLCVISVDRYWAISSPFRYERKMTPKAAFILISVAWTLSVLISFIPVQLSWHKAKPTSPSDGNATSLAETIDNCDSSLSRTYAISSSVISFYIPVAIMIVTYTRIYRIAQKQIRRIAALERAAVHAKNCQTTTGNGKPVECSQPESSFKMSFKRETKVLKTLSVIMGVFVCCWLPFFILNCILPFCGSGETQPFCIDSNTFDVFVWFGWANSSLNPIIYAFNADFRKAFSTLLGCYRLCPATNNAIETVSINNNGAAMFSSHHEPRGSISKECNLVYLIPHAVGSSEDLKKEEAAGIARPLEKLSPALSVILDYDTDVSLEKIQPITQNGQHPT", "assay": "D1 cAMP assay", "format": "cell-based", "settings": "read-out: intrinsic activity (efficacy)", "description": "The ability of the compounds to either stimulate or inhibit the D1 receptor mediated cAMP formation in CHO cells stably expressing the human recombinant D1 receptor was measured as follows. Cells were seeded in 96-well plates at a concentration of 11000 cells/well 3 days prior to the experiment."}, "human D2 receptor": {"target": "T2, human D2 receptor (Homo sapiens, UniProt P14416)", "T2 construct": "expressed in transfected cells; host or cells: CHO cells", "T2 sequence (P14416 whole entry)": "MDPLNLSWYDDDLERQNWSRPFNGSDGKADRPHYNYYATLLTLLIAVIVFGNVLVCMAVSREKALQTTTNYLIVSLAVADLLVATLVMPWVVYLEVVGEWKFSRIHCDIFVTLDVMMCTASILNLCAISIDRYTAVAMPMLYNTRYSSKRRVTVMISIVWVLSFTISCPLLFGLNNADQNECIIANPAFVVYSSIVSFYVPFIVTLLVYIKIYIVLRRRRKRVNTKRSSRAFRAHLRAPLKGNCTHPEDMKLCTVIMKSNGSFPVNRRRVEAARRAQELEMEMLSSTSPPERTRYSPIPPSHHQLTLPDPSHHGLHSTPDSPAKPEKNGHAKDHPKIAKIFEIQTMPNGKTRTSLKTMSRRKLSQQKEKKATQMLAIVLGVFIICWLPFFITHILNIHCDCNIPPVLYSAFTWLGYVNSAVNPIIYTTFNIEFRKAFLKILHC", "assay": "D2 cAMP assay", "format": "cell-based", "settings": "read-out: intrinsic activity (efficacy)", "description": "The ability of the compounds to either stimulate or inhibit the D2 receptor mediated inhibition of cAMP formation in CHO cells transfected with the human D2 receptor was measured as follows. Cells were seeded in 96 well plates at a concentration of 8000 cells/well 3 days prior to the experiment. On the day of the experiment the cells were washed once in preheated G buffer (1 mM MgCl2, 0.9 mM CaCl2, 1 mM IBMX in PBS) and the assay was initiated by addition of 100 micro-1 of a mixture of 1 micro-M quinpirole, 10 microM forskolin and test compound in G buffer (antagonism) or 10 micro-M forskolin and test compound in G buffer (agonism)."}, "6-OHDA rats": {"test_system": "6-OHDA rats", "assay": "Reversal of L-DOPA-induced dyskinesias in 6-OHDA rats (AIMS)", "format": "in vivo, rat", "settings": "after 7 days L-DOPA/Benserazide priming; once daily days 1-10: L-DOPA/Benserazide 6/15 mg/kg SC; compound 10 0.0013 mg/kg SC; pramipexole […] SC", "excerpt": "Animals were observed on Days 1, 3 and 5 and AIMS were scored. The day 5 scores were then used to separate the animals into three groups of 6 animals each. Group 1 continued with daily L-DOPA treatment. […] Treatment continued daily for 10 days and the amount of dyskinesia was scored on days 1, 5, 9 and 10."}, "[5]": {"settings": "Table 4e direct comparison, AMPT 250 mg/kg SC, apomorphine 1 mg/kg SC, pramipexole 1 mg/kg SC, compound 10 0.030 mg/kg SC, controls: vehicle 509, AMPT/vehicle 2"}}}
{"smiles": "N[C@@H](Cc1ccc(O)c(O)c1)C(=O)O", "note": "[L-DOPA, reference compound]", "values": [{"measurement": "dyskinesia score (AIMS)", "setting": "[1]", "value": "about 65"}, {"measurement": "disability score (60 min)", "setting": "MPTP treated marmosets; 12.5 mg/kg PO", "value": 10.0}, {"measurement": "disability score (120 min)", "setting": "MPTP treated marmosets; 12.5 mg/kg PO", "value": 2.0}, {"measurement": "disability score (180 min)", "setting": "MPTP treated marmosets; 12.5 mg/kg PO", "value": 1.8}, {"measurement": "disability score (240 min)", "setting": "MPTP treated marmosets; 12.5 mg/kg PO", "value": 3.2}, {"measurement": "disability score (300 min)", "setting": "MPTP treated marmosets; 12.5 mg/kg PO", "value": 5.0}, {"measurement": "disability score (360 min)", "setting": "MPTP treated marmosets; 12.5 mg/kg PO", "value": 9.7}, {"measurement": "disability score (420 min)", "setting": "MPTP treated marmosets; 12.5 mg/kg PO", "value": 11.0}, {"measurement": "effect on locomotor activity and motor disability", "setting": "MPTP treated marmosets; L-DOPA 12.5 mg/kg p.o., compound 10 0.001 or 0.01 mg/kg SC", "value": "increased locomotor activity and reversed motor disability"}]}
{"smiles": "CN1CCc2cccc3c2[C@H]1Cc1ccc(O)c(O)c1-3", "note": "[apomorphine, reference compound]", "values": [{"measurement": "dyskinesia score (AIMS)", "setting": "[1]", "value": "about 65"}, {"measurement": "mean number of rotations over 3 h", "setting": "[2]; apomorphine 0.1 mg/kg SC, compound 10 0.01 mg/kg buccally", "value": 1123}, {"measurement": "induction of rotation", "setting": "[2]; apomorphine subcutaneous, compound 10 buccal", "value": "induced rotations"}, {"measurement": "reversal of motility deficits", "setting": "MPTP/AMPT mouse model; MPTP/AMPT mice, all dosed subcutaneously", "value": "restored locomotion in the mice in a dose-dependent manner"}, {"measurement": "activity count (0.5-1.5 h)", "setting": "MPTP/AMPT mouse model; Table 4b, AMPT 250 mg/kg SC at -1.5 h, 1.0 mg/kg SC, controls: vehicle 694, AMPT/vehicle 1", "value": 912}, {"measurement": "activity count (0.5-1.5 h)", "setting": "MPTP/AMPT mouse model; [5]", "value": 904}, {"measurement": "reversal of reserpine-induced hypomotility", "setting": "reserpinesed rats; administered subcutaneously", "value": "reversed the reserpine-induced hypomotility"}, {"measurement": "activity count", "setting": "reserpinesed rats; reserpine 5 mg/kg SC 23-24 h before, apomorphine 1 mg/kg SC, compound 10 0.01 mg/kg SC, over 3 hours, controls: vehicle 486, reserpine/vehicle 17", "value": 440}, {"measurement": "MED (minimum effective dose to induce rotation)", "setting": "[3]", "value": 0.010, "unit": "mg/kg"}, {"measurement": "MEDNemonapride (MED to overcome Nemonapride block)", "setting": "[3]", "value": 0.030, "unit": "mg/kg"}, {"measurement": "Emax", "setting": "[4]", "value": 86, "unit": "%"}, {"measurement": "Emax", "setting": "human D2 receptor", "value": 100, "unit": "%"}]}
{"smiles": "CC(C)C[C@H]1C(=O)N2CCC[C@H]2[C@]2(O)O[C@](NC(=O)[C@@H]3C=C4c5cccc6[nH]c(Br)c(c56)C[C@H]4N(C)C3)(C(C)C)C(=O)N12", "note": "[bromocriptine]", "values": [{"measurement": "activity count (0.5-1.5 h)", "setting": "MPTP/AMPT mouse model; Table 4d, AMPT 250 mg/kg SC, 1 mg/kg SC, controls: vehicle 336, AMPT/vehicle 16", "value": 25}, {"measurement": "activity count (0.5-1.5 h)", "setting": "MPTP/AMPT mouse model; Table 4d, AMPT 250 mg/kg SC, 5 mg/kg SC", "value": 17}, {"measurement": "activity count (0.5-1.5 h)", "setting": "MPTP/AMPT mouse model; Table 4d, AMPT 250 mg/kg SC, 10 mg/kg SC", "value": 36}]}
{"smiles": "CCCN[C@H]1CCc2nc(N)sc2C1", "note": "[pramipexole]", "values": [{"measurement": "mean AIM score (days 1, 5, 9, 10)", "setting": "6-OHDA rats", "value": 58}, {"measurement": "activity count (0.5-1.5 h)", "setting": "MPTP/AMPT mouse model; [5]", "value": 176}, {"measurement": "MED (minimum effective dose to induce rotation)", "setting": "[3]", "value": 0.1, "unit": "mg/kg"}, {"measurement": "MEDNemonapride (MED to overcome Nemonapride block)", "setting": "[3]", "value": 1.0, "unit": "mg/kg"}]}
{"smiles": "CCCN(CCc1cccs1)[C@H]1CCc2c(O)cccc2C1", "note": "[rotigotine]", "values": [{"measurement": "D1 component in rotation model", "setting": "[3]; SC", "value": "could not be observed"}, {"measurement": "MED (minimum effective dose to induce rotation)", "setting": "[3]", "value": 0.030, "unit": "mg/kg"}, {"measurement": "MEDNemonapride (MED to overcome Nemonapride block)", "setting": "[3]", "value": 0.30, "unit": "mg/kg"}]}
